Assays:
[1] = target: T1, human E-Selectin-IgG-chimera (Homo sapiens, UniProt P16581); experiment: Sialyl Lewis x Tyrosine Sulfate Assay (sLex TSA), E-selectin; assay type: binding; details: for E-Selectin [% Inhib.] / inhibition at 100 µM: compound at 100 μM; for inhibition at 100 µM: read-out: E-Selectin [% Inhib.]
T1 construct: fused on or other part: human IgG Fc part, a tag and dimerising handle that is captured by the goat anti-human Fc antibody on the plate
T1 sequence (P16581 22-175 limits assumed): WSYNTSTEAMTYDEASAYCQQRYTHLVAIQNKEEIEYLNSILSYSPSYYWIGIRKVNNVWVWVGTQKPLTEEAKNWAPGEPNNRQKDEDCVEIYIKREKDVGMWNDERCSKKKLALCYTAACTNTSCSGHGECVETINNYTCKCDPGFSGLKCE
Method: (§1) Compounds of the present invention are assayed on a molecular level for their ability to inhibit the binding of P-, L-, or E-selectin chimeric molecules to sLe^x and tyrosinesulfate residues linked to a polymeric matrix as a PSGL-1 substitute.
(§2) Microtiter plates are coated overnight in carbonate buffer pH9.6 with goat anti human Fc mAB (10 μg/ml). After washing in assay buffer (25 mM 4-(2-hydroxyethyl)-1-piperazineethanesulfonic acid (HEPES), 150 mM NaCl, 1 mM CaCl2 pH7.4) and blocking (3% bovine serum albumin (BSA) in assay buffer) plates are incubated for 2 h at 37° C. with human P-Selectin-IgG-chimera (0.61 nM respectively 150 ng/mL) or human L-Selectin-IgG-chimera (0.61 nM respectively 89 ng/mL) or human E-Selectin-IgG-chimera (0.61 nM respectively 131 ng/mL). 5 μl of sLe^x-tyrosine sulfate polyacrylamide (1 mg/ml) carrying 15% sLe^x, 10% Tyrosine-sulfate and 5% biotin is complexed with 20 μl Streptavidin-Peroxidase solution (1 mg/ml) and 25 μl assay buffer without CaCl2. For use in the assay, the ligand complex is diluted 1:10000 in assay buffer and further diluted 1:1 with varying amounts of compounds in assay buffer incl. 2% DMSO. This mixture is added to the wells precoated with E- or P-selectin. After incubation for 2 h at 37° C., wells are washed for six times with in assay buffer incl. 0.005% Polyoxyethylenesorbitan monolaurate (TWEEN 20), developed for 10-15 min with 20 μl 3,3′,5,5′-tetramethylbenzidine (TMB)/H2O2 substrate solution and stopped with 20 μl […]. Bound sLe^x-Tyrosine sulfate ligand complex is determined by measuring optical density at 450 nm vs. 620 nm in a Fusion alpha-FP reader (sold from Packard Bioscience, Dreieich, Germany).

[2] = target: T2, human P-Selectin-IgG-chimera (Homo sapiens, UniProt P16109); experiment: Sialyl Lewis x Tyrosine Sulfate Assay (sLex TSA), P-selectin; assay type: binding; details: for P-Selectin [% Inhib.] / inhibition at 100 µM: compound at 100 μM; for inhibition at 100 µM: read-out: P-Selectin [% Inhib.]
T2 sequence (P16109 42-771 limits assumed): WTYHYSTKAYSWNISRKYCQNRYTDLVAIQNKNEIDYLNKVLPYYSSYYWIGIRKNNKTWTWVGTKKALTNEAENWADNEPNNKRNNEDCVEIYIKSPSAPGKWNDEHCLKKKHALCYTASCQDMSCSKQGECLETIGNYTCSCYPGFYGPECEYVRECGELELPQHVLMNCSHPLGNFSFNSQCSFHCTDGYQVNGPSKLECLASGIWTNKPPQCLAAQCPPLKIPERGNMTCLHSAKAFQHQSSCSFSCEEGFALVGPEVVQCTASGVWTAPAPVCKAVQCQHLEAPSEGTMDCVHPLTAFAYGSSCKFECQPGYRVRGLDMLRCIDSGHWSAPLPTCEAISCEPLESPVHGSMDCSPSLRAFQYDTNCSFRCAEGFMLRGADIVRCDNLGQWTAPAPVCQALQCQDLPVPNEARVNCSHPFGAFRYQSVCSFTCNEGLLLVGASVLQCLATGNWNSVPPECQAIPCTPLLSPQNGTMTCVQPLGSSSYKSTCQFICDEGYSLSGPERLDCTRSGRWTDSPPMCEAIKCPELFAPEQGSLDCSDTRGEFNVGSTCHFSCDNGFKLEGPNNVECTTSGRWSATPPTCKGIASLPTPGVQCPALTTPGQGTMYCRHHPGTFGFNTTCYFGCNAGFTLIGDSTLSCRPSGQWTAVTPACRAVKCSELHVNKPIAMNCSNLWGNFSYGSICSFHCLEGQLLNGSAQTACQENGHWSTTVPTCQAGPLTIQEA
Method: as §1, §2

[3] = target: T3, human L-Selectin-IgG-chimera (Homo sapiens, UniProt P14151); experiment: Sialyl Lewis x Tyrosine Sulfate Assay (sLex TSA), L-selectin; assay type: binding; details: for L-Selectin [% Inhib.] / inhibition at 100 µM: compound at 100 μM; for inhibition at 100 µM: read-out: L-Selectin [% Inhib.]
T3 construct: fused on or other part: human IgG Fc part, a tag and dimerising handle that is captured by the goat anti-human Fc antibody on the plate
T3 sequence (P14151 39-318 limits assumed): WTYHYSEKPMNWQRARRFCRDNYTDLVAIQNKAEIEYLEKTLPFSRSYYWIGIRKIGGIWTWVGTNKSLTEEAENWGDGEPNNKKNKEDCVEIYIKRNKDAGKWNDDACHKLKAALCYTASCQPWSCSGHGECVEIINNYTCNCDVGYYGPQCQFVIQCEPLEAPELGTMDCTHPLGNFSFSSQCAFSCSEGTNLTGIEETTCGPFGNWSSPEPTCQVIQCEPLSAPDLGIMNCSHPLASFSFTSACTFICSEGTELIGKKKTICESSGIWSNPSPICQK
Method: as §1, §2

[4] = Parallel Artificial Membrane Permeation Assay (PAMPA); assay type: in vitro ADME; details: 16 hours, room temperature
Method: The test compounds are dissolved at 10 mM in DMSO and diluted to 500 μM with PBS pH 7.4 or pH 4.0, respectively resulting in ‘donor solutions’. For use as an artificial membrane, a 1% solution of lecithin (w/v) in dodecane is prepared and sonicated. Then, 5 μl of the lecithin/dodecane mixture are carefully pipetted into each donor plate well. Immediately after the application of the artificial membrane, 150 μl of drug containing donor solutions are added to each well of the donor plate. Each well of the acceptor plate is filled with 300 μl buffer (PBS with 5% DMSO at pH 7.4 or pH 4.0, respectively) and the drug-filled donor plate is placed onto the acceptor plate, making sure the membrane is in contact with the buffer. After replacement of the lid, the assembled plates are transferred into a sealed box equipped with a moistured towel and incubated at room temperature for 16 hours. Then, the wells of the acceptor plate are analyzed with LC/MS.

| E-Selectin [% Inhib.] [1] [%] | P-Selectin [% Inhib.] [2] [%] | L-Selectin [% Inhib.] [3] [%] | inhibition at 100 µM [1] [%] | IC50 [2] [µM] | inhibition at 100 µM [2] [%] | IC50 [3] [µM] | inhibition at 100 µM [3] [%] | IC50 [1] [µM] | [% flux] at pH 4.0 ([4]; pH 4.0, 500 μM donor) [%] | [% flux] at pH 7.4 ([4]; pH 7.4, 500 μM donor) [%] | SMILES |
| --- | --- | --- | --- | --- | --- | --- | --- | --- | --- | --- | --- |
| 38 | 99 | 95 |  |  |  |  |  |  |  |  | O=C(CCc1ccc(O)c(O)c1O)Nc1cccc(C(=O)O)c1 [Compound 114] |
|  |  |  | 38 | 7.4 | 97 | 16 | 83 |  |  |  | O=C(O)Cc1cccc(NC(=O)Cc2ccc(O)c(O)c2O)c1 [Compound 112] |
| 52 | 94 | 85 |  |  |  |  |  |  |  |  | O=C(O)Cc1ccc(-c2ccccc2NC(=O)CCc2ccc(O)c(O)c2O)s1 [Compound 106] |
|  |  |  | 85 | 1.7 | 86 | 1.8 | 84 | 1.3 |  |  | Cc1ccc(C(=O)O)cc1NC(=O)CCc1cc(O)c(O)c(O)c1 [Compound 108] |
|  |  |  | 58 | 2.1 | 57 |  | 52 | 1 |  |  | O=C(O)Cc1cccc(NC(=O)Cc2cc(O)c(O)c(O)c2)c1 [Compound 98] |
| 89 | 90 | 81 |  |  |  |  |  |  |  |  | O=C(O)Cc1cccc(-c2ccccc2NC(=O)CCc2cc(O)c(O)c(O)c2)c1 [Compound 95] |
|  |  |  | 90 | 3.4 | 86 | 5.7 | 84 | 3.1 |  |  | O=C(CCc1cc(O)c(O)c(O)c1)NCC1CCC(C(=O)O)CC1 (stereo not drawn) [Compound 105] |
|  |  |  | 20 |  | 68 |  | 63 |  | 0 | 17 | COC(=O)c1ccccc1NC(=O)Cc1ccc(O)c(O)c1O [Compound 93] |
|  | 89 | 88 |  |  |  |  |  |  |  |  | Cc1c(NC(=O)CCc2ccc(O)c(O)c2O)cccc1C(=O)O [Compound 115] |
|  |  |  | 92 | 13 | 88 | 15 | 87 | 7.3 |  |  | Cc1ccc(C(=O)O)cc1NC(=O)CCc1ccc(O)c(O)c1O [Compound 116] |
|  |  |  | 67 | 2.8 | 67 | 3.3 | 62 | 3 |  |  | O=C(Cc1cc(O)c(O)c(O)c1)NCC1CCC(C(=O)O)CC1 (stereo not drawn) [Compound 104] |
| 68 | 87 | 81 |  |  |  |  |  |  |  |  | O=C(O)Cc1ccc(-c2ccccc2NC(=O)Cc2cc(O)c(O)c(O)c2)s1 [Compound 103] |
|  |  |  | 63 | 1.1 | 86 | 1.4 | 73 | 0.8 |  |  | O=C(Cc1cc(O)c(O)c(O)c1)Nc1cccc(C(=O)O)c1 [Compound 96] |
|  |  |  | 46 | 2.1 | 99 | 7 | 97 | 0.6 |  |  | O=C(Cc1ccc(O)c(O)c1O)Nc1cccc(C(=O)O)c1 [Compound 111] |
| 14 | 82 | 55 |  |  |  |  |  |  |  |  | O=C(Cc1ccc(O)c(O)c1O)NCc1ccc(C(=O)O)cc1 [Compound 119] |
| 96 | 96 | 92 |  |  |  |  |  |  |  |  | O=C(CCc1cc(O)c(O)c(O)c1)Nc1cccc(C(=O)O)c1 [Compound 110] |
| 42 | 73 | 48 |  |  |  |  |  |  |  |  | Cc1c(NC(=O)Cc2ccc(O)c(O)c2O)cccc1C(=O)O [Compound 113] |
|  |  |  | 54 |  | 84 |  | 88 |  |  |  | COC(=O)Cc1cccc(-c2ccccc2NC(=O)CCc2cc(O)c(O)c(O)c2)c1 [Compound 73, {2′-[3-(3,4,5-Trihydroxy-phenyl)-propionylamino]-biphenyl-3-yl}-acetic acid methyl ester] |
|  |  |  | 94 | 21.7 | 86 | 109 | 89 | 8.4 |  |  | Cc1c(NC(=O)CCc2cc(O)c(O)c(O)c2)cccc1C(=O)O [Compound 117] |
|  |  |  | 82 |  | 73 |  | 72 | 2.3 |  |  | O=C(O)Cc1cccc(NC(=O)CCc2cc(O)c(O)c(O)c2)c1 [Compound 109] |
| 53 | 87 | 75 |  |  |  |  |  |  |  |  | Cc1ccc(C(=O)O)cc1NC(=O)Cc1cc(O)c(O)c(O)c1 [Compound 107] |
| 21 | 40 | 27 |  |  |  |  |  |  |  |  | O=C(Cc1ccc(O)c(O)c1O)NCC1CCC(C(=O)O)CC1 (stereo not drawn) [Compound 100] |
|  |  |  | 79 | 4.2 | 78 | 8.7 | 76 | 4.9 |  |  | O=C(O)Cc1cccc(-c2ccccc2NC(=O)Cc2cc(O)c(O)c(O)c2)c1 [Compound 94] |
